Measurements published in patent US20120115793A1, “PEPTIDOMIMETIC MACROCYCLES” (Alleron Therapeutics, Inc, priority 2008, published 2012).
Read-outs that look alike come from different tables or passages of the source. Where a SMILES comes first, the peptide text is derived from it. Bridges are numbered along the chain shown (N, C = ends). [ ]: non-standard residue; d: D form. S5 = C=CCCC[C@](C)(N)C(=O)O

What was measured:
[1] = test system: human serum proteins (HSA); experiment: Apparent affinity to human serum proteins (Kd*) by EC50 shift analysis; format: in vitro ADME
Excerpt: The measurement of apparent Kd values for serum protein by EC50 shift analysis provides a simple and rapid means of quantifying the propensity of experimental compounds to bind HSA and other serum proteins. A linear relationship exists between the apparent EC50 in the presence of serum protein (EC'50) and the amount of serum protein added to an in vitro assay. This relationship is defined by the binding affinity of the compound for serum proteins, expressed as Kd*. This term is an experimentally determined, apparent dissociation constant that may result from the cumulative effects of multiple, experimentally indistinguishable, binding events. The form of this relationship is presented here in Eq. 0.3, and its derivation can be found in Copeland et al, Biorg. Med. Chem. Lett. 2004, 14:2309-2312.
A significant proportion of serum protein binding can be ascribed to drug interactions with HSA, due to the very high concentration of this protein in serum (35-50 g/L or 530-758 μM). To calculate the Kd value for these compounds we have assumed that the shift in EC50 upon protein addition can be ascribed fully to the HSA present in the added serum, where P is 700 μM for 100% serum, P is 70 μM for 10% serum, etc. We further made the simplifying assumption that all of the compounds bind HSA with a 1:1 stoichiometry, so that the term n in Eq. (0.3) is fixed at unity. With these parameters in place we calculated the Kd* value for each stapled peptide from the changes in EC50 values with increasing serum (and serum protein) concentrations by nonlinear regression analysis of Eq. 0.3 using Mathematica 4.1 (Wolfram Research, Inc., www.wolfram.com). EC'50 values in whole blood are estimated by setting P in Eq. 0.3 to 700 μM [HSA].
The free fraction in blood is estimated using the following equation, as derived by Trainor, Expert Opin. Drug Disc., 2007, 2(1):51-64, where [HSA] total is set at 700 μM.
The following macrocycles derived from the human MAML peptide sequences were tested in cell viability assays (described above) with the MOLT-4 tumor cell line at a range of human serum protein concentrations to determine their apparent affinity to human serum proteins and the projected EC50s in whole human blood: […]

Molt-4 cell line = format: cell-based; conditions: 48 h
Procedure: Molt-4 cell line (ATCC catalog #CRL-1582) was grown in specific serum-supplemented media (RPMI-1640, Invitrogen catalog #72400) as recommended by ATCC. A day prior to the initiation of the study, cells were split at optimal cell density (2×10^5-5×10^5 cells/ml) to assure actively dividing cells. The next day, cells were washed twice in serum-free Opti-MEM media (Invitrogen, Catalog #51985) and cells were then plated at optimal cell density (10,000 cells/well) in 50 μl Opti-MEM media or Opti-MEM supplemented with 2%, 4% or 10% human serum (Bioreclamation, catalog #HMSRM) in 96-well white tissue culture plate (Nunc, catalog #136102).
For serum free experiment, peptidomimetic macrocycles were diluted from 2 mM stocks (100% DMSO) in sterile water to prepare 400 μM working solutions. The macrocycles and controls were diluted 10-fold first and then serially two-fold diluted in Opti-MEM in dosing plates to provide concentrations of between 1.2 and 40 μM. 50 μL of each dilution was then added to the appropriate wells of the test plate to achieve final concentrations of the polypeptides equal to between 0.6 to 20 μM. For studies using Opti-MEM supplemented with human serum (Bioreclamation, catalog #HMSRM), peptidomimetic macrocycles were diluted from 10 mM stocks (100% DMSO) in sterile water to prepare 2 mM working solutions. The peptide macrocycles and controls were diluted 10-fold first and then serially two-fold diluted in Opti-MEM in the presence of 2%, 4% or 10% of human serum to provide concentrations of the polypeptides equal to between 6.25 to 200 μM in dosing plates. 50 μL of each dilution was then added to the appropriate welts of the test plate to achieve final concentrations of the polypeptides equal to between 3.125 to 100 μM. Controls included wells without polypeptides containing the same concentration of DMSO as the wells containing the macrocycles, wells containing 0.1% Triton X-100 and wells containing no cells. Plates were incubated for 48 hours at 37° C. in humidified 5% CO2 atmosphere.
At the end of the incubation period, CellTiter-Glo assay was performed according to manufacturer's instructions (Promega, catalog #G7573) and luminescence was measured using Synergy HT Plate reader (BioTek).
The following macrocycles derived from the human MAML peptide sequences were tested in cell viability assays with the MOLT-4 tumor cell line: […]

| SMILES | Kd ([1]; human) [µM] | fraction unbound ([1]; human, serum) | EC50 (Molt-4 cell line) [µM] | fraction unbound ([1]; human, estimated with [HSA] total set at 700 μM, read-out: Free Fraction est. in blood) | Kd ([1]; nonlinear regression of EC50 shift with increasing human serum, 1:1 HSA binding assumed, 700 μM HSA for 100% serum, read-out: Serum Kd*) [µM] |
| --- | --- | --- | --- | --- | --- |
| CC[C@H](C)[C@H](NC(=O)[C@H](CCCNC(=N)N)NC(=O)[C@H](CCCNC(=N)N)NC(=O)[C@H](CCCNC(=N)N)NC(=O)[C@H](CC(C)C)NC(=O)[C@H](CCCNC(=N)N)NC(=O)[C@H](CCC(=O)O)NC(C)=O)C(=O)N[C@@]1(C)CCCC=CCCC[C@@](C)(C(=O)N[C@@H](Cc2c[nH]cn2)C(=O)N[C@@H](Cc2c[nH]cn2)C(=O)N[C@@H](CO)C(=O)N[C@H](C(N)=O)[C@@H](C)O)NC(=O)[C@H](CCCNC(=N)N)NC(=O)[C@H](CS)NC(=O)[C@H](CC(C)C)NC1=O [Compound 1, Ac-ERLRRRI$LCR$HHST-NH2] (Ac-ERLRRRI[S5]LCR[S5]HHST-NH2; staple 8-12) | < 0.1 | < 0.001 | – | – | – |
| CC[C@H](C)[C@H](NC(=O)[C@H](CCCNC(=N)N)NC(=O)[C@H](CCCNC(=N)N)NC(=O)[C@H](CCCNC(=N)N)NC(=O)[C@H](CC(C)C)NC(=O)[C@H](CCCNC(=N)N)NC(=O)[C@H](CCC(=O)O)NC(C)=O)C(=O)N[C@@]1(C)CCCC=CCCC[C@@](C)(C(=O)N[C@@H](Cc2c[nH]cn2)C(=O)N[C@@H](Cc2c[nH]cn2)C(=O)N[C@@H](CO)C(=O)N[C@H](C(N)=O)[C@@H](C)O)NC(=O)[C@H](CCCNC(=N)N)NC(=O)[C@H](C)NC(=O)[C@H](CC(C)C)NC1=O [Compound 4, Ac-ERLRRRI$LAR$HHST-NH2] (Ac-ERLRRRI[S5]LAR[S5]HHST-NH2; staple 8-12) | < 0.1 | < 0.001 | > 20 | – | – |
| CC[C@H](C)[C@H](NC(=O)[C@H](CCCNC(=N)N)NC(=O)[C@H](CCCNC(=N)N)NC(=O)[C@H](CCCNC(=N)N)NC(=O)[C@H](CC(C)C)NC(=O)[C@H](C)NC(C)=O)C(=O)N[C@@]1(C)CCCC=CCCC[C@@](C)(C(=O)N[C@@H](Cc2c[nH]cn2)C(=O)N[C@@H](Cc2c[nH]cn2)C(=O)N[C@@H](CO)C(=O)N[C@H](C(N)=O)[C@@H](C)O)NC(=O)[C@H](C)NC(=O)[C@H](CS)NC(=O)[C@H](CC(C)C)NC1=O [Compound 19, Ac-ALRRRI$LCA$HHST-NH2] (Ac-ALRRRI[S5]LCA[S5]HHST-NH2; staple 7-11) | – | – | – | 0.001 | 0.6 |
